Some test systems named below: UO-31; OVCAR-3; HL-60; MCF7; HCT-15; SK-MEL-2; OVCAR-8; LOX IMVI; Hs-578T; KM12; RPMI-8226; CAKI-1; SK-OV-3; UACC-62; OVCAR-4; SR; RXF 393; HOP-92; SK-MEL-5; NCI/ADR-RES.
What all share (assay): NCI tumour cell line growth inhibition, 48 h

Experimental findings from ChEMBL document CHEMBL1201862, “PubChem BioAssay data set” (2004) are described below.

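Tested at 5 concentrations; 48 h exposure; 96-well plates; endpoints linearly interpolated, else capped at highest concentration. The concentration for 50% growth inhibition is given as GI50.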 The source made the active and inactive calls. Cut-off read from the data, not from the text of the source: active = GI50 up to about 1.1 µM and inactive = higher.

As for `N#C[BH2-][n+]1cn(C2CC(OP(=O)(O)OCC3OC(n4ccc(N)nc4=O)CC3O)C(CO)O2)c2nc(N)[nH]c(=O)c21` (centres undefined), the GI50 in the assay with UO-31 is > 100 µM (inactive); with OVCAR-3, > 100 µM (inactive); with HL-60 it was > 100 µM (inactive); in the assay on MCF7, > 100 µM (inactive); in the assay with HCT-15, more than 100 µM; with SK-MEL-2, > 100 µM (inactive). Further, the GI50 in the assay with OVCAR-8, in the assay on LOX IMVI, in the assay on Hs-578T, with KM12, with RPMI-8226 and in the assay with CAKI-1 was > 100 µM (inactive) throughout. In addition, the GI50 with SK-OV-3, with UACC-62, in the assay on OVCAR-4, in the assay on SR, in the assay with RXF 393 and with HOP-92 was > 100 µM (inactive) in each case. In addition, the GI50 in the assay on SK-MEL-5 and with NCI/ADR-RES was > 100 µM (inactive) in each case.
Take `CNc1ccc([N+](=O)[O-])cc1C(=O)N1CCC[C@H]1CO`: the GI50 in the assay on UO-31 is > 100 µM (inactive); with HL-60, > 100 µM (inactive); with MCF7 it was > 100 µM (inactive); in the assay with HCT-15, more than 100 µM; in the assay with SK-MEL-2, > 100 µM (inactive); with OVCAR-8 it was > 100 µM (inactive). For the same compound, the GI50 in the assay on LOX IMVI, in the assay on Hs-578T, in the assay with KM12, with RPMI-8226, with CAKI-1 and with SK-OV-3 was > 100 µM (inactive) throughout. For the same compound, the GI50 with UACC-62, in the assay on OVCAR-4, with SR, in the assay on RXF 393, with HOP-92 and in the assay with SK-MEL-5 was > 100 µM (inactive) throughout. Besides, in the assay with NCI/ADR-RES, the GI50 was > 100 µM (inactive).
With `COC(=O)c1ccc2c(c1)CC1(C2)Cc2ccccc2C1=O` (centres undefined), the GI50 in the assay with UO-31 is 22.4 µM (inactive); in the assay on OVCAR-3, 29.1 µM (inactive); in the assay with HL-60, 26.5 µM (inactive); with MCF7 it was 22.9 µM (inactive); with HCT-15, 36.2 µM; with SK-MEL-2 it was 27.4 µM (inactive). The GI50 in the assay on OVCAR-8 was 38.5 µM (inactive); in the assay on LOX IMVI it was 22.4 µM (inactive); in the assay on Hs-578T it was 69.7 µM (inactive); with RPMI-8226 it was 13.4 µM (inactive); in the assay with CAKI-1 it was 34.7 µM (inactive); with SK-OV-3, 68.4 µM (inactive). The GI50 in the assay on OVCAR-4 was 32.3 µM (inactive); in the assay with SR, 22.2 µM (inactive); in the assay on RXF 393, 33.3 µM (inactive); in the assay with HOP-92, 18.1 µM (inactive); in the assay on SK-MEL-5 it was 17.9 µM (inactive); in the assay on NCI/ADR-RES, 27.6 µM (inactive).
On to `FC(F)(F)c1ccc2c(c1)nc(Cc1ccc(Cl)cc1)n2CC1CCCN2CCCCC12` (centres undefined), for which the GI50 in the assay on UO-31 is 0.0194 µM (active); with OVCAR-3 it was 3.8 µM (inactive); with HL-60, 2.23 µM (inactive); with MCF7, 10.2 µM (inactive); in the assay with HCT-15 it was 8.69 µM; in the assay on SK-MEL-2 it was 13.6 µM (inactive). Besides, the GI50 was 11.3 µM (inactive) with OVCAR-8; 2.15 µM (inactive) in the assay on LOX IMVI; 1.19 µM (inactive) in the assay on Hs-578T; 5.02 µM (inactive) in the assay on KM12; 14.8 µM (inactive) in the assay on CAKI-1; 11.9 µM (inactive) in the assay with SK-OV-3. The GI50 in the assay on UACC-62 was 2.89 µM (inactive); with OVCAR-4, 12.2 µM (inactive); in the assay on SR, 2.29 µM (inactive); in the assay on RXF 393 it was 10.3 µM (inactive); in the assay with HOP-92 it was 7.67 µM (inactive); in the assay on SK-MEL-5, 3.89 µM (inactive). The GI50 in the assay on NCI/ADR-RES was 8.18 µM (inactive).
Consider `C[C@H](CCC(=O)O)[C@H]1CC[C@H]2[C@@H]3[C@@H](O)C[C@@H]4C[C@H](O)CC[C@]4(C)[C@H]3C[C@H](O)[C@]12C`, for which the GI50 in the assay on HL-60 was > 100 µM (inactive); in the assay with MCF7, > 100 µM (inactive); with HCT-15, more than 100 µM; in the assay on SK-MEL-2, > 100 µM (inactive); in the assay with OVCAR-8, > 100 µM (inactive); with LOX IMVI, > 100 µM (inactive). The GI50 in the assay on Hs-578T was 16.4 µM (inactive); in the assay with KM12, > 100 µM (inactive); with RPMI-8226, > 100 µM (inactive); in the assay with CAKI-1, > 100 µM (inactive); in the assay with UACC-62, > 100 µM (inactive); in the assay with OVCAR-4, > 100 µM (inactive). Also, the GI50 with SR, in the assay on RXF 393, in the assay with HOP-92 and in the assay with NCI/ADR-RES was > 100 µM (inactive) each time.
Turning to `O=C1CC(O)c2cscc21` (centres undefined), the GI50 in the assay on OVCAR-3 is > 100 µM (inactive); in the assay on HL-60, > 100 µM (inactive); with MCF7 it was > 100 µM (inactive); with HCT-15, more than 100 µM; in the assay on SK-MEL-2 it was > 100 µM (inactive); in the assay on OVCAR-8, 65.9 µM (inactive). Besides, the GI50 in the assay on LOX IMVI was 36.5 µM (inactive); in the assay with Hs-578T it was > 100 µM (inactive); with KM12 it was > 100 µM (inactive); with RPMI-8226, 35.3 µM (inactive); in the assay with CAKI-1, > 100 µM (inactive); with SK-OV-3, > 100 µM (inactive). The GI50 with UACC-62 is > 100 µM (inactive); with OVCAR-4 it was > 100 µM (inactive); in the assay with SR, 29.5 µM (inactive); in the assay on RXF 393, > 100 µM (inactive); in the assay with HOP-92, > 100 µM (inactive); with SK-MEL-5, > 100 µM (inactive). Also, the GI50 in the assay with NCI/ADR-RES is > 100 µM (inactive).
Regarding `COC1/C=C/C(C)C(C(C)C(OC)C(C)CCC(=O)C(C)C(CCC(=O)O)OC)OC(=O)/C=C/C=C(\C)CC(OC)CC2=CC(=O)O[C@@H](C(C)C(OC)CC(OC)/C=C/C(C)C(OC)C1)[C@H]2O` (some centres undefined), the GI50 is 0.646 µM (active) with OVCAR-3; 0.185 µM (active) in the assay on HL-60; 1.04 µM (active) with MCF7; 0.74 µM in the assay with HCT-15; 0.271 µM (active) in the assay on SK-MEL-2; 2.21 µM (inactive) in the assay on OVCAR-8. Besides, the GI50 is 0.226 µM (active) in the assay with LOX IMVI; 0.499 µM (active) with Hs-578T; 2.19 µM (inactive) in the assay on KM12; 0.242 µM (active) with RPMI-8226; 0.269 µM (active) in the assay with CAKI-1; 1.18 µM (inactive) with SK-OV-3. The GI50 is 0.787 µM (active) with UACC-62; 0.971 µM (active) in the assay with OVCAR-4; 0.637 µM (active) in the assay on SR; 0.583 µM (active) with RXF 393; 0.372 µM (active) with HOP-92; 0.296 µM (active) in the assay on SK-MEL-5. In the assay with NCI/ADR-RES, the GI50 is > 5 µM (inactive).
As for `c1ccc(-c2c3c(nc4c2CC[C@H]4NC2=NCCN2)[C@@H](NC2=NCCN2)CC3)cc1`, the GI50 with UO-31 is > 100 µM (inactive); in the assay with OVCAR-3, 65.8 µM (inactive); in the assay with HL-60 it was 11.2 µM (inactive); in the assay on MCF7 it was > 100 µM (inactive); in the assay on HCT-15 it was more than 100 µM; with SK-MEL-2 it was > 100 µM (inactive). Further, the GI50 is > 100 µM (inactive) with OVCAR-8; 59 µM (inactive) with LOX IMVI; > 100 µM (inactive) in the assay with Hs-578T; > 100 µM (inactive) in the assay on KM12; > 100 µM (inactive) with CAKI-1; > 100 µM (inactive) in the assay with SK-OV-3. The GI50 in the assay with UACC-62 is > 100 µM (inactive); in the assay on OVCAR-4, > 100 µM (inactive); with SR, > 100 µM (inactive); in the assay on RXF 393 it was > 100 µM (inactive); with HOP-92 it was 20.7 µM (inactive); in the assay with SK-MEL-5, > 100 µM (inactive). In the assay on NCI/ADR-RES, the GI50 was > 100 µM (inactive).
